# Source: patent US8420606B2, “Method of utilizing physiological activity of rare saccharide and composition containing rare saccharide” (priority 2002, dated 2013)
# Entries after “also recorded” stand apart in the source; their conditions may differ.
# What was measured:
# [1] = system: Hepatic cancer cells (HepG2); experiment: proliferation of cultured cells, MTT method, HepG2; assay type: cell-based, human; settings: saccharide 50 mM, 4 to 5 days
# Method: (§1) Various kinds of rare saccharides were added at a concentration of 50 mM to culture media under the following conditions, and an influence of each rare saccharide upon the progress of proliferation of cancer cell strains was examined.
# (§2) (1) Target cells to which the rare saccharides were added: Hepatic cancer cells (HepG2), uterine cancer cells (He1a), ovary cancer cells (OVCAR3), and skin keratinocyte (HaCaT) were selected as target cells to which the rare saccharides were added.
# (§3) (2) Rare saccharides added: In addition to D-allose, glucose and D-altros as rare saccharides belonging to ketose were added, as other comparative saccharides, to the addition target cells. Also, D-fructose was employed as a control.
# (§4) (3) Experiment method: A number 3,000-5,000 of addition target cells per type were inoculated into a multi-well plastic dish (hereinafter referred to as a “well”) having 96 wells, and were cultured for 4 to 5 days in a culture medium supplemented with 5 to 10% of Fetal Bovine Serum (FBS) depending on the cell types. D-Allose, D-glucose and D-altros were each added at concentration of 50 mM to the addition target cells per type. Similarly, D-fructose as a control was added at a concentration of 50 mM. To examine the influence upon the cell proliferation, the cell number was measured in units of 24 hours by using the MTT method described below.
# (1) Preparation of reagents: A predetermined amount of MTT (tetrazolium salt) was dissolved in PBS(−) sterilized in an autoclave to obtain an MTT solution through filtering and sterilization. An acidic solution was prepared by adding 50 mL of N,N-dimethylformaldehyde and water to a predetermined amount of (20 g) of SDS, thereby obtaining a 100 mL of solution. […]
# (2) Test method: The cells were treated with TEP to prepare a cell suspension liquid. […] The absorbance of the liquid was measured at a wavelength of 570 to 600 nm by using a spectrophotometer. After dissolving the colored substance (formazan) in the acid solution, the absorbance can be measured directly by a plate reader.
# [2] = system: temporary eye ischemia model (rat); experiment: retina ischemia-reperfusion, glutamate by microdialysis; assay type: in vivo; settings: D-allose 200 mg/kg intravenous before the ischemia
# Method: (1) Purpose: This Example 6 is intended to study an influence of D-allose upon the retina in a temporary eye ischemia model (rat). (2) Method: The temporary eye ischemia model was prepared by raising the intraocular pressure up to a level of about 120 mmHg. The model was subjected to ischemia for 45 minutes and then to reperfusion. The concentration of glutamate released in the ischemia-reperfusion process was measured by the microdialysis method.
# [3] = system: THP-1; experiment: blood-system cancer cell strain proliferation, Coulter Counter, THP1; assay type: cell-based; settings: 0.05-50 mM, 7 days, D-glucose control
# Method: (§5) (2) Method: Total 6 kinds of cell strains, i.e., Myeloid (HL-60, THP-1, KG-1), T-cell (MT-2), and B-Cell (Daudi, KS-1), and 3 kinds of rare saccharides (i.e., D-psicose, D-altrose, and D-allose), were employed. The culture medium and the cells were prepared to be 1 mL in total and 1×10^5 in number, respectively. Then, the cell number at each of fourth day and seventh day was counted by using a Coulter Counter. Each rare saccharide was added at concentrations of 0.05, 0.5, 5 and 50 mM, while D-glucose was used as a control.
# (§6) Culture Medium: FBS 10% added RPMI1460
# (§7) Cultivation Conditions: 37° C., 5% CO2
# (§8) Cultivation Vessel: FALCON, MULTIWELL, 12 wells
# (§9) Number of Cultivation Days: 7 days
# (§10) Saccharides Concentration: 0.05, 0.5, 5, 50 mM
# [4] = system: KG-1; experiment: blood-system cancer cell strain proliferation, Coulter Counter, KG1; assay type: cell-based; settings: 0.05-50 mM, 7 days, including the control
# Method: as §5, §6, §7, §8, §9, §10
# [5] = system: ovary cancer cells (OVCAR3); experiment: proliferation of cultured cells, MTT method, OVCAR3; assay type: cell-based; settings: for proliferation of OVCAR3 cells (cell number over time): saccharide 50 mM, 4 to 5 days, MTT
# Method: as §1, §2, §3, §4
# (1) Preparation of reagents: A predetermined amount of MTT (tetrazolium salt) was dissolved in PBS(−) sterilized in an autoclave to obtain an MTT solution through filtering and sterilization. An acidic solution was prepared by adding 50 mL of N,N-dimethylformaldehyde and water to a predetermined amount of (20 g) of SDS, thereby obtaining a 100 mL of solution. About […] of 1N hydrochloric acid was added to the solution for adjustment of a pH-value to 4.7. The solution was preserved at room temperature and warmed up to 37° C. just before the use.
# (2) Test method: The cells were treated with TEP to prepare a cell suspension liquid. This cell suspension liquid was pipetted in a predetermined cell-density (300 to 52000 cells/well) to each well (96-well plate: 0.1 mL of culture medium per well). The saccharide as a drug was added in a predetermined amount to each well, followed by cultivation for a whole day and night in a CO2 incubator. Then, 0.5 mg/mL of the MTT solution was added and the resulting culture was incubated for 4 hours in the incubator. Thereafter, the culture medium was completely removed. Then, in a room kept at 37° C., an acid solution was added in amount of 0.1 mL/well. The well plate was placed on a micro-plate mixer and shaken at 37° C. for 20 minutes to dissolve a colored substance (namely, to dissolve “formazan” in the acid solution). The absorbance of the liquid was measured at a wavelength of 570 to 600 nm by using a spectrophotometer. After dissolving the colored substance (formazan) in the acid solution, the absorbance can be measured directly by a plate reader.
# (1) Experiment method: The ovary cancer cells (OVCAR3) were selected as target cells to which a rare saccharide was added, and D-allose as the saccharide was added at concentrations of 1 mM, 5 mM, 10 mM, 20 mM, 50 mM and 100 mM. The experimental conditions, such as the method of culturing the ovary cancer cells (OVCAR3) and the method of measuring the cell number (MTT method), were the same as those in Example 1.
# [6] = system: glutamate release from hippocampus; experiment: temporary brain ischemia, glutamate outside hippocampus neurons by micro-dialysis; assay type: in vivo, gerbil
# Method: (2) Method: The bilateral common carotid artery of a gerbil was shut off for 5 minutes. After 1 week, the gerbil was sacrificed and a sample was prepared in accordance with the ordinary method, followed by hematoxyline eosin dyeing. The survival rate was measured by counting the number of hippocampus neurons while looking at them under a microscope. Experiments were performed on a normal control group, a group subjected to only ischemia, and a group administrated with 200 mg/kg of D-allose or D-psicose before ischemia. It is known that glutamates released in large amount from the neurons with ischemia are toxic to the neurons. Such a point was examined by fixing the gerbil to a brain position fixing device, perfusing a solution, in which oxidase glutamate is dissolved, to the hippocampus through a probe for micro-dialysis, and measuring the glutamate concentration outside the hippocampus neurons. Also, the inventors have clarified the relationship between the metabolism of glucose and the action mechanism of D-allose with ischemia by pre-administrating D-allose and 2-deoxiglucose.
SMILES,proliferation of HepG2 cells (cell number over time) [1],glutamate concentration during the reperfusion [2],"glutamate concentration during the ischemia ([2]; 45 minutes ischemia, versus control)",THP1 proliferation inhibitory effect [3],KG1 proliferation inhibitory effect [4],"concentration at which the cancer-cell proliferation inhibitory effect was first found ([5]; OVCAR3, 1, 5, 10, 20, 50, 100 mM tested, 10% fetal bovine serum) [mM]","dead cells (microscope, trypan blue-exclusion assay) ([5]; OVCAR3 cells to which D-allose was applied)",proliferation of OVCAR3 cells (cell number over time) [5],inhibition rate of second peak of glutamate release (hyperperfusion after ischemia) ([6]; administration of D-allose),inhibition rate of first peak of glutamate release (with ischemia) ([6]; pre-administration of D-allose)
O=C[C@H](O)[C@H](O)[C@H](O)[C@H](O)CO [D-allose],strongly inhibited proliferation; also recorded: has a proliferation inhibitory effect,completely inhibited,inhibited in comparison with that in the control,showed a cell proliferation inhibitory effect at 59 mM,having the inhibitory effect,10,dead cells hardly existed,strongly inhibited proliferation; also recorded: has a proliferation inhibitory effect,about 90%,about 25%
"O=C[C@H](O)[C@@H](O)[C@H](O)[C@H](O)CO [D-glucose, reference compound]",hardly found,,,,,,,acted so as to promote the proliferation of the cancer cells,,
